# Values quoted from earlier work as cited in publication PMC12119673, “Apoptotic cell death induced by copper (II), manganese (II) and silver (I) complexes containing bridging dicarboxylate and 1,10-phenanthroline ligands: one of the multi-modes of anticancer activity?” (Biometals, 2025).
# Tests used:
# Parameters in all cases: method as in Kellett et al. [2011]; Slator et al. [2017]
# Galleria Mellonella = settings: ref Kellett et al. [2011], Slator et al. [2017]; cited from earlier work
# HT29, SW480 and SW620 = settings: ref Kellett et al. [2011], Slator et al. [2017]; cited from earlier work
# HaCaT cells = settings: HaCaT vs colorectal cancer lines; ref Kellett et al. [2011]; Slator et al. [2017]; cited from earlier work
structure (smiles),measurement,setting,value
O.O.O=C([O-])CCCCCCC(=O)[O-].[Mn+2].[Mn+2].c1cnc2c(c1)ccc1cccnc12.c1cnc2c(c1)ccc1cccnc12.c1cnc2c(c1)ccc1cccnc12.c1cnc2c(c1)ccc1cccnc12 [[Mn2(μ-oda)(phen)4(H2O)2]^2+],In vivo tolerance,Galleria Mellonella,well-tolerated
same,Cytotoxicity towards colorectal cancers,"HT29, SW480 and SW620",nano-molar cytotoxicity
same,Reduction in potency towards non-cancerous cells,HaCaT cells,almost tenfold reduction in potency
